Here are results for ten molecules from US6025467A, “Parathyroid hormone derivatives and their use” (Takeda Chemical Industries, Ltd., priority 1995, dated 2000).

Non-standard residues stand in square brackets, D forms with d. Residues, ends and D or L forms follow the SMILES beside them. No end group written: not given here. 2Nal = N[C@@H](Cc1ccc2ccccc2c1)C(=O)O; Aib = CC(C)(N)C(=O)O

Assay [1] has as its system Sprangue Dawley rats. The assay is described as follows: Increase in femur bone weight in rats after subcutaneous dosing. It counts as in vivo, rat. Particulars: dried right femur weight compared with vehicle group. How it is done: To four-week-old male Sprangue Dawley rats, the compounds synthesized in Example 1 […], and increases in the bone weight in their femurs were compared with that of a group to which a vehicle (0.15M NaCl, 0.001N hydrochloric acid and 2% heat-inactivated rat serum) was given. After administration, their right femurs were taken out, and the tissues around them were removed. Then, the femurs were dried at 100° C. for 3 hours and weighed.

Assay [2] concerns the target PTH receptor (mouse, UniProt P41593). Description: cell-based or functional assay.
[3] abbreviates: 4.9 nmol/kg a day subcutaneously for two weeks, four-week-old male rats.

Molecule `CC[C@H](C)[C@H](NC(=O)[C@H](CCC(=O)O)NC(=O)[C@H](CO)NC(=O)[C@@H](NC(=O)[C@@H](N)CO)C(C)C)C(=O)N[C@@H](CCC(N)=O)C(=O)N[C@@H](CC(C)C)C(=O)N[C@@H](CCSC)C(=O)N[C@@H](Cc1c[nH]cn1)C(=O)N[C@@H](CC(=O)O)C(=O)N[C@@H](CCCCN)C(=O)NCC(=O)N[C@@H](CCCCN)C(=O)N[C@@H](Cc1c[nH]cn1)C(=O)N[C@@H](CC(C)C)C(=O)N[C@@H](CC(N)=O)C(=O)N[C@@H](CO)C(=O)N[C@@H](CCSC)C(=O)N[C@@H](CCC(=O)O)C(=O)N[C@@H](CCCNC(=N)N)C(=O)N[C@H](C(=O)N[C@@H](CCC(=O)O)C(=O)N[C@@H](Cc1c[nH]c2ccccc12)C(=O)N[C@@H](CC(C)C)C(=O)N[C@@H](CCCNC(=N)N)C(=O)N[C@@H](CCCCN)C(=O)N[C@@H](CCCCN)C(=O)N[C@@H](CC(C)C)C(=O)N[C@@H](CCC(N)=O)C(=O)N[C@@H](CC(=O)O)C(=O)N[C@H](C(=O)N[C@@H](Cc1c[nH]cn1)C(=O)N[C@@H](CC(N)=O)C(=O)N[C@@H](Cc1ccccc1)C(=O)O)C(C)C)C(C)C` [(1), [Asp^10, Lys^11] hPTH(1-34)] (H-SVSEIQLMHDKGKHLNSMERVEWLRKKLQDVHNF-OH) returned a bone increase in assay [1] (4.9 nmol/kg a day subcutaneously, continuously administered for 4 weeks) of 66.6 mg.
In assay [1] (setting [3]), `CC[C@H](C)[C@H](NC(=O)[C@H](CCC(=O)O)NC(=O)[C@H](CO)NC(=O)[C@@H](NC(=O)[C@@H](N)CO)C(C)C)C(=O)N[C@@H](CCC(N)=O)C(=O)N[C@@H](CC(C)C)C(=O)N[C@@H](CCSC)C(=O)N[C@@H](Cc1c[nH]cn1)C(=O)N[C@@H](CCC(=O)O)C(=O)N[C@@H](Cc1ccccc1)C(=O)N[C@H](C)C(=O)N[C@@H](CCCCN)C(=O)N[C@@H](Cc1c[nH]cn1)C(=O)N[C@@H](CC(C)C)C(=O)N[C@@H](CC(N)=O)C(=O)N[C@@H](CO)C(=O)N[C@@H](CCSC)C(=O)N[C@@H](CCC(=O)O)C(=O)N[C@@H](CCCNC(=N)N)C(=O)N[C@H](C(=O)N[C@@H](CCC(=O)O)C(=O)N[C@@H](Cc1c[nH]c2ccccc12)C(=O)N[C@@H](CC(C)C)C(=O)N[C@@H](CCCNC(=N)N)C(=O)N[C@@H](CCCCN)C(=O)N[C@@H](CCCCN)C(=O)N[C@@H](CC(C)C)C(=O)N[C@@H](CCC(N)=O)C(=O)N[C@@H](CC(=O)O)C(=O)N[C@H](C(=O)N[C@@H](Cc1c[nH]cn1)C(=O)N[C@@H](CC(N)=O)C(=O)N[C@@H](Cc1ccccc1)C(=O)O)C(C)C)C(C)C` [(10), [Glu^10, Phe^11, D-Ala^12] hPTH(1-34)] (H-SVSEIQLMHEF[dA]KHLNSMERVEWLRKKLQDVHNF-OH) returned a bone increase of 19.4 mg.
Still for that read-out and setting: then `CC[C@H](C)[C@H](NC(=O)[C@H](CCC(=O)O)NC(=O)[C@H](CO)NC(=O)[C@@H](NC(=O)[C@@H](N)CO)C(C)C)C(=O)N[C@@H](CCC(N)=O)C(=O)N[C@@H](CC(C)C)C(=O)N[C@@H](CCSC)C(=O)N[C@@H](Cc1c[nH]cn1)C(=O)N[C@@H](CCC(=O)O)C(=O)N[C@@H](CC(C)C)C(=O)NCC(=O)N[C@@H](CCCCN)C(=O)N[C@@H](Cc1c[nH]cn1)C(=O)N[C@@H](CC(C)C)C(=O)N[C@@H](CO)C(=O)N[C@@H](CO)C(=O)N[C@@H](CCSC)C(=O)N[C@@H](CCC(=O)O)C(=O)N[C@@H](CCCNC(=N)N)C(=O)N[C@H](C(=O)N[C@@H](CCC(=O)O)C(=O)N[C@@H](Cc1c[nH]c2ccccc12)C(=O)N[C@@H](CC(C)C)C(=O)N[C@@H](CCCNC(=N)N)C(=O)N[C@@H](CCCCN)C(=O)N[C@@H](CCCCN)C(=O)N[C@@H](CC(C)C)C(=O)N[C@@H](CCC(N)=O)C(=O)N[C@@H](CC(=O)O)C(=O)N[C@H](C(=O)N[C@@H](Cc1c[nH]cn1)C(=O)N[C@@H](CC(N)=O)C(=O)N[C@@H](Cc1ccccc1)C(=O)O)C(C)C)C(C)C` [(15), [Glu^10, Ser^16] hPTH(1-34)] (H-SVSEIQLMHELGKHLSSMERVEWLRKKLQDVHNF-OH), with 15.1 mg.
Take `CC[C@H](C)[C@H](NC(=O)[C@H](CCC(=O)O)NC(=O)[C@H](CO)NC(=O)[C@@H](NC(=O)[C@@H](N)CO)C(C)C)C(=O)N[C@@H](CCC(N)=O)C(=O)N[C@@H](CC(C)C)C(=O)N[C@@H](CCSC)C(=O)N[C@@H](Cc1c[nH]cn1)C(=O)N[C@@H](CCC(=O)O)C(=O)N[C@@H](Cc1ccccc1)C(=O)NCC(=O)N[C@@H](CCCCN)C(=O)N[C@@H](Cc1c[nH]cn1)C(=O)N[C@@H](CC(C)C)C(=O)N[C@@H](CCCCN)C(=O)N[C@@H](CO)C(=O)N[C@@H](CCSC)C(=O)N[C@@H](CCC(=O)O)C(=O)N[C@@H](CCCNC(=N)N)C(=O)N[C@H](C(=O)N[C@@H](CCC(=O)O)C(=O)N[C@@H](Cc1c[nH]c2ccccc12)C(=O)N[C@@H](CC(C)C)C(=O)N[C@@H](CCCNC(=N)N)C(=O)N[C@@H](CCCCN)C(=O)N[C@@H](CCC(N)=O)C(=O)N[C@@H](CC(C)C)C(=O)N[C@@H](CCC(N)=O)C(=O)N[C@@H](CC(=O)O)C(=O)N[C@H](C(=O)N[C@@H](Cc1c[nH]cn1)C(=O)N[C@@H](CC(N)=O)C(=O)N[C@@H](Cc1ccccc1)C(=O)O)C(C)C)C(C)C` [(17), [Glu^10, Phe^11, Lys^16, Gln^27] hPTH(1-34)] (H-SVSEIQLMHEFGKHLKSMERVEWLRKQLQDVHNF-OH): in assay [1] (setting [3]), the bone increase is given as 12.4 mg.
On the same count and under the same terms, then `CC[C@H](C)[C@H](NC(=O)[C@H](CCC(=O)O)NC(=O)[C@H](CO)NC(=O)[C@@H](NC(=O)[C@@H](N)CO)C(C)C)C(=O)N[C@@H](CCC(N)=O)C(=O)N[C@@H](CC(C)C)C(=O)N[C@@H](CCSC)C(=O)N[C@@H](Cc1c[nH]cn1)C(=O)N[C@@H](CC(=O)O)C(=O)N[C@@H](Cc1ccccc1)C(=O)NCC(=O)N[C@@H](CCCCN)C(=O)N[C@@H](Cc1c[nH]cn1)C(=O)N[C@@H](CC(C)C)C(=O)N[C@@H](CCCCN)C(=O)N[C@@H](CCCCN)C(=O)N[C@@H](CCSC)C(=O)N[C@@H](CCC(=O)O)C(=O)N[C@@H](CCCNC(=N)N)C(=O)N[C@H](C(=O)N[C@@H](CCC(=O)O)C(=O)N[C@@H](Cc1c[nH]c2ccccc12)C(=O)N[C@@H](CC(C)C)C(=O)N[C@@H](CCCNC(=N)N)C(=O)N[C@@H](CCCCN)C(=O)N[C@@H](CCC(N)=O)C(=O)N[C@@H](CC(C)C)C(=O)N[C@@H](CCC(N)=O)C(=O)NC(C)(C)C(=O)N[C@H](C(=O)N[C@@H](Cc1c[nH]cn1)C(=O)N[C@@H](CC(N)=O)C(=O)N[C@@H](Cc1ccccc1)C(=O)O)C(C)C)C(C)C` [(19), [Asp^10, Phe^11, Lys^16,17, Gln^2 7, Aib^30] hPTH(1-34)] (H-SVSEIQLMHDFGKHLKKMERVEWLRKQLQ[Aib]VHNF-OH), with 16.9 mg.
Same read-out and setting: then `CC[C@H](C)[C@H](NC(=O)[C@H](CCC(=O)O)NC(=O)[C@H](CO)NC(=O)[C@@H](NC(=O)[C@@H](N)CO)C(C)C)C(=O)N[C@@H](CCC(N)=O)C(=O)N[C@@H](CC(C)C)C(=O)N[C@@H](CCSC)C(=O)N[C@@H](Cc1c[nH]cn1)C(=O)N[C@@H](CCC(=O)O)C(=O)N[C@@H](CC(C)C)C(=O)NCC(=O)N[C@@H](CCCN)C(=O)N[C@@H](Cc1c[nH]cn1)C(=O)N[C@@H](CC(C)C)C(=O)N[C@@H](CC(N)=O)C(=O)N[C@@H](CO)C(=O)N[C@@H](CCSC)C(=O)N[C@@H](CCC(=O)O)C(=O)N[C@@H](CCCNC(=N)N)C(=O)N[C@H](C(=O)N[C@@H](CCC(=O)O)C(=O)N[C@@H](Cc1c[nH]c2ccccc12)C(=O)N[C@@H](CC(C)C)C(=O)N[C@@H](CCCNC(=N)N)C(=O)N[C@@H](CCCCN)C(=O)N[C@@H](CCCCN)C(=O)N[C@@H](CC(C)C)C(=O)N[C@@H](CCC(N)=O)C(=O)N[C@@H](CC(=O)O)C(=O)N[C@H](C(=O)N[C@@H](Cc1c[nH]cn1)C(=O)N[C@@H](CC(N)=O)C(=O)N[C@@H](Cc1ccccc1)C(=O)O)C(C)C)C(C)C` [(22), [Glu^10, Orn^13] hPTH(1-34)], with 14.8 mg.
Regarding SVSEIQLMHDLGKHLNSMERVEWLRKKLQDVHNF [[Asp^10 ] hPTH(1-34)], the “cAMP increase (pmol/well)” value in assay [2] was 0.6 pmol/well.
On the same count and under the same terms, to SVSEIQLMHDFGKHLNSMERVEWLRKKLQDVHNF [[Asp^10, Phe^11 ] hPTH(1-34)] belongs 2.58 pmol/well.
The same measure, in the same setting: to SVSEIQLMHELGKHLNSMERVEWLRKKLQDVHNF [[Glu^10 ] hPTH(1-34)] belongs 1.81 pmol/well; to SVSEIQLMHD[2Nal]GKHLNSMERVEWLRKKLQDVHNF [[Asp^10, Ala(2-Naph)^11 ] hPTH(1-34)], 2.65 pmol/well.
